Reference: PMC9977398, “Next-generation membrane-active glycopeptide antibiotics that also inhibit bacterial cell division” (Chemical Science, 2023)

System: persister cells of MRSA
Assay: Bactericidal activity against persister cells
Assay type: cell-based, S. aureus
Description: Persister cells are a subpopulation of bacterial cultures that are refractory to antibiotic treatment.[28] […] This activity was more rapid than that observed against stationary phase cells. […]
from 10 μg/mL. The bacteria with compounds and untreated control were incubated for 18 h at 37 ̊C under shaking and OD600 was measured.
Microscopy of ΔamiAC MG1655 E. coli
ΔamiAC MG1655 was cultured overnight in LB media at 37 ̊C. Cells were then inoculated in LB media at 1:100 dilution ratio and made to grow till O.D600 0.1. The cells were then treated with 4 μg/mL concentration of vancomycin and VanQAmC10 or left untreated for 2 h. 6 μl of sample was immobilized on 1% agarose pad and microscopy was performed as described above. The experiments were performed three times independently and the images are representative of results from three independent experiments. […]
MRSA ATCC 33591 was grown to mid-log phase at 37 °C. […] The viable bacteria were then counted after 48 h incubation at 37 °C. […]
Antagonization of antibacterial activity of AAV-qC10 was determined by addition of 500 μM N,N՛-diacetyl–L-Lys–D-Ala–D-Ala or 100 μg/mL of lipoteichoic acid to serial dilutions of the test compound. The MIC was then determined against MRSA by measuring the OD600 18-24 […]
Vancomycin was chosen as control antibiotic for MRSA. The initial MIC values of VanQAmC10, vancomycin were determined against the respective bacteria. […]

## CCCCCCCCCCNC(=O)C[N+](C)(C)CCCNC(=O)C1NC(=O)C2NC(=O)C(NC(=O)C3NC(=O)C(CC(N)=O)NC(=O)C(NC(=O)C(CC(C)C)NC)C(O)c4ccc(c(Cl)c4)Oc4cc3cc(c4OC3OC(CO)C(O)C(O)C3OC3CC(C)(N)C(O)C(C)O3)Oc3ccc(cc3Cl)C2O)c2ccc(O)c(c2)-c2c(O)cc(O)cc21 (stereo not shown) [VanQAmC10 (8)]
  activity against persister cells: concentration-dependent bactericidal activity
